From patent publication US20260166039A1 (SCHRÖDINGER, INC., priority 2022, published 2026)

The compounds below were run against T1, Wee1 kinase domain (Homo sapiens, UniProt P30291) (assay: Wee1 Kinase Biochemical Assay (ADP-Glo)). Settings: class symbols; 1 nM Wee1 enzyme, 15 uM ATP, 4 hours at 25° C.
T1 construct: Wee1 kinase domain was purchased from Carna (catalog #05-177); purchased Carna 05-177
How it was run: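 Compounds tested against 1 nM Wee1 kinase domain in Tris buffer containing 20 mM MgCl2, BSA and 2 mM DTT, with 15 uM ATP and poly(Lys,Tyr) substrate for 4 h at 25 °C. Luminescent ADP detection gave percent inhibition, normalized to DMSO and saturating inhibitor.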

T1 sequence (P30291 299-569 limits assumed): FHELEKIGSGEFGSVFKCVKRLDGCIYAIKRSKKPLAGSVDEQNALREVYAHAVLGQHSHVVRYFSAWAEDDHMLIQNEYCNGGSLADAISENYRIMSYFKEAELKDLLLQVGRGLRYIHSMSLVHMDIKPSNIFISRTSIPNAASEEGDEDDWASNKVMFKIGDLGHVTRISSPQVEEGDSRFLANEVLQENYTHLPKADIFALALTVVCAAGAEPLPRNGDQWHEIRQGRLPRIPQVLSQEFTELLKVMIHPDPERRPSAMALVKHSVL

IC50 [nM]	Compound
100 to 1000	CN1CC2(C1)CN(c1ccc(Nc3ncc4c(n3)N(c3cccc(N5CCCC5=O)n3)[C@H]3CC(C)(C)OC[C@@]43C)cc1)C2 [Example 691, 1-(6-((4bS,8aS)-4b,7,7-trimethyl-2-((4-(6-methyl-2,6-diazaspiro[3.3]heptan-2-yl)phenyl)amino)-4b,7,8,8a-tetrahydropyrano[3′,4′:4,5]pyrrolo[2,3-d]pyrimidin-9(5H)-yl)pyridin-2-yl)pyrrolidin-2-one]
100 to 1000	CN1C[C@@H]2CN(c3ccc(Nc4ncc5c(n4)N(c4cccc(N6CCOC6=O)n4)[C@H]4CC(C)(C)OC[C@@]54C)cc3)C[C@@H]2C1 [Example 693, 3-(6-((4bS,8aS)-46,7,7-trimethyl-2-((4-((3aR,6aS)-5-methylhexahydropyrrolo[3,4-c]pyrrol-2(1H)-yl)phenyl)amino)-4b,7,8,8a-tetrahydropyrano[3′,4′:4,5]pyrrolo[2,3-d]pyrimidin-9(5H)-yl)pyridin-2-yl)oxazolidin-2-one]
10 to 100	CN1C[C@@H]2CN(c3ccc(Nc4ncc5c(n4)N(c4cccc(N6CCCC6=O)n4)[C@H]4CC(C)(C)OC[C@@]54C)cc3)C[C@@H]2C1 [Example 695, 1-(6-((4bS,8aS)-4b,7,7-trimethyl-2-((4-((3aR,6aS)-5-methylhexahydropyrrolo[3,4-c]pyrrol-2(1H)-yl)phenyl)amino)-4b,7,8,8a-tetrahydropyrano[3′,4′:4,5]pyrrolo[2,3-d]pyrimidin-9(5H)-yl)pyridin-2-yl)pyrrolidin-2-one]
10 to 100	CN1CC(c2ccc(Nc3ncc4c(n3)N(c3cccc(N5CCCC5=O)n3)[C@H]3CC(C)(C)OC[C@@]43C)cc2)C1 [Example 697, 1-(6-((4bS,8aS)-4b,7,7-trimethyl-2-((4-(1-methylazetidin-3-yl)phenyl)amino)-4b,7,8,8a-tetrahydropyrano[3′,4′:4,5]pyrrolo[2,3-d]pyrimidin-9(5H)-yl)pyridin-2-yl)pyrrolidin-2-one]
100 to 1000	CN1CC(c2ccc(Nc3ncc4c(n3)N(c3cccc(N5CCOC5=O)n3)[C@H]3CC(C)(C)OC[C@@]43C)cc2)C1 [Example 699, 3-(6-((4bS,8aS)-4b,7,7-trimethyl-2-((4-(1-methylazetidin-3-yl)phenyl)amino)-4b,7,8,8a-tetrahydropyrano[3′,4′:4,5]pyrrolo[2,3-d]pyrimidin-9(5H)-yl)pyridin-2-yl)oxazolidin-2-one]
10 to 100	CN1[C@@H]2C[C@H]1CN(c1ccc(Nc3ncc4c(n3)N(c3cccc(N5CCOC5=O)n3)[C@H]3CC(C)(C)OC[C@@]43C)cc1)C2 [Example 701, 3-(6-((4bS,8aS)-4b,7,7-trimethyl-2-((4-((1R,5S)-6-methyl-3,6-diazabicyclo[3.1.1]heptan-3-yl)phenyl)amino)-4b,7,8,8a-tetrahydropyrano[3′,4′:4,5]pyrrolo[2,3-d]pyrimidin-9(5H)-yl)pyridin-2-yl)oxazolidin-2-one]
100 to 1000	CN1[C@@H]2C[C@H]1CN(c1ccc(Nc3ncc4c(n3)N(c3cccc(N5CCCC5=O)n3)[C@H]3CC(C)(C)OC[C@@]43C)cc1)C2 [Example 704, 1-(6-((4bS,8aS)-4b,7,7-trimethyl-2-((4-((1R,5S)-6-methyl-3,6-diazabicyclo[3.1.1]heptan-3-yl)phenyl)amino)-4b,7,8,8a-tetrahydropyrano[3′,4′:4,5]pyrrolo[2,3-d]pyrimidin-9(5H)-yl)pyridin-2-yl)pyrrolidin-2-one]
10 to 100	CN1CC[C@@H]2CN(c3ccc(Nc4ncc5c(n4)N(c4cccc(N6CCOC6=O)n4)[C@H]4CC(C)(C)OC[C@@]54C)cc3)C[C@@H]21 [Example 706, 3-(6-((4bS,8aS)-4b,7,7-trimethyl-2-((4-((3aR,6aR)-1-methylhexahydropyrrolo[3,4-b]pyrrol-5(1H)-yl)phenyl)amino)-4b,7,8,8a-tetrahydropyrano[3′,4′:4,5]pyrrolo[2,3-d]pyrimidin-9(5H)-yl)pyridin-2-yl)oxazolidin-2-one]
10 to 100	CN1CC2(C1)CN(c1ccc(Nc3ncc4c(n3)N(c3cccc(N5CCOC5=O)n3)[C@H]3CC(C)(C)OC[C@@]43C)cc1)C2 [Example 708, 3-(6-((4bS,8aS)-4b,7,7-trimethyl-2-((4-(6-methyl-2,6-diazaspiro[3.3]heptan-2-yl)phenyl)amino)-4b,7,8,8a-tetrahydropyrano[3′,4′:4,5]pyrrolo[2,3-d]pyrimidin-9(5H)-yl)pyridin-2-yl)oxazolidin-2-one]
≥ 1000	CN1CCC(c2ccc(Nc3ncc4c(n3)N(c3cccc(N=S(C)(C)=O)c3)[C@H]3CC(C)(C)OC[C@@]43C)cn2)CC1 [Example 709, dimethyl((3-((4bS,8aS)-4b,7,7-trimethyl-2-((6-(1-methylpiperidin-4-yl)pyridin-3-yl)amino)-4b,7,8,8a-tetrahydropyrano[3′,4′:4,5]pyrrolo[2,3-d]pyrimidin-9(5H)-yl)phenyl)imino)-16-sulfanone]
10 to 100	CN1C[C@H]2C[C@@H]1CN2c1ccc(Nc2ncc3c(n2)N(c2cccc(N=S(C)(C)=O)c2)[C@H]2CC(C)(C)OC[C@@]32C)cc1 [Example 714, dimethyl((3-((4bS,8aS)-4b,7,7-trimethyl-2-((4-((1R,4R)-5-methyl-2,5-diazabicyclo[2.2.1]heptan-2-yl)phenyl)amino)-4b,7,8,8a-tetrahydropyrano[3′,4′:4,5]pyrrolo[2,3-d]pyrimidin-9(5H)-yl)phenyl)imino)-16-sulfanone]
100 to 1000	CN1CCC(n2cc(Nc3ncc4c(n3)N(c3cccc(N=S(C)(C)=O)c3)[C@H]3CC(C)(C)OC[C@@]43C)cn2)CC1 [Example 715, dimethyl((3-((4bS,8aS)-4b,7,7-trimethyl-2-((1-(1-methylpiperidin-4-yl)-1H-pyrazol-4-yl)amino)-4b,7,8,8a-tetrahydropyrano[3′,4′:4,5]pyrrolo[2,3-d]pyrimidin-9(5H)-yl)phenyl)imino)-16-sulfanone]
10 to 100	CC1(C)C[C@@H]2N(c3cccc([C@H]4COCCN4)n3)c3nc(Nc4ccc(N5CCOCC5)cc4)ncc3[C@]2(C)CO1 [Example 732, (4bS,8aS)-4b,7,7-trimethyl-9-(6-((S)-morpholin-3-yl)pyridin-2-yl)-N-(4-morpholinophenyl)-4b,5,7,8,8a,9-hexahydropyrano[3′,4′:4,5]pyrrolo[2,3-d]pyrimidin-2-amine]
10 to 100	CC1(C)C[C@H]2N(c3cccc([C@@H]4CNCCO4)n3)c3nc(Nc4ccc(N5CCOCC5)cc4)ncc3[C@@]2(C)CO1 [Example 735, (4bR,8aR)-4b,7,7-trimethyl-9-(6-((S)-morpholin-2-yl)pyridin-2-yl)-N-(4-morpholinophenyl)-4b,5,7,8,8a,9-hexahydropyrano[3′,4′:4,5]pyrrolo[2,3-d]pyrimidin-2-amine]
100 to 1000	CC1(C)C[C@@H]2N(c3cccc([C@@H]4CNCCO4)n3)c3nc(Nc4ccc(N5CCOCC5)cc4)ncc3[C@]2(C)CO1 [Example 736, (4bS,8aS)-4b,7,7-trimethyl-9-(6-((S)-morpholin-2-yl)pyridin-2-yl)-N-(4-morpholinophenyl)-4b,5,7,8,8a,9-hexahydropyrano[3′,4′:4,5]pyrrolo[2,3-d]pyrimidin-2-amine]
10 to 100	CC1(C)C[C@@H]2N(c3cccc([C@H]4CNCCO4)n3)c3nc(Nc4ccc(N5CCOCC5)cc4)ncc3[C@]2(C)CO1 [Example 738, (4bS,8aS)-4b,7,7-trimethyl-9-(6-((R)-morpholin-2-yl)pyridin-2-yl)-N-(4-morpholinophenyl)-4b,5,7,8,8a,9-hexahydropyrano[3′,4′:4,5]pyrrolo[2,3-d]pyrimidin-2-amine]
10 to 100	CNCc1cccc(N2c3nc(NC(=O)[C@H]4C[C@@H]4c4ccccc4)ncc3[C@@]3(C)COC(C)(C)C[C@@H]23)n1 [Example 761, (1S,2S)-2-phenyl-N-((4bR,8aR)-4b,7,7-trimethyl-9-(6-((methylamino)methyl)pyridin-2-yl)-4b,5,7,8,8a,9-hexahydropyrano[3′,4′:4,5]pyrrolo[2,3-d]pyrimidin-2-yl)cyclopropane-1-carboxamide]
10 to 100	CNCc1cccc(N2c3nc(NC(=O)[C@H]4C[C@@H]4c4cnn(C)c4)ncc3[C@@]3(C)COC(C)(C)C[C@@H]23)n1 [Example 763, (1S,2S)-2-(1-methyl-1H-pyrazol-4-yl)-N-((4bR,8aR)-4b,7,7-trimethyl-9-(6-((methylamino)methyl)pyridin-2-yl)-4b,5,7,8,8a,9-hexahydropyrano[3′,4′:4,5]pyrrolo[2,3-d]pyrimidin-2-yl)cyclopropane-1-carboxamide]
100 to 1000	CNCc1cccc(N2c3nc(NC(=O)[C@H]4C[C@@H]4c4cccnc4)ncc3[C@@]3(C)COC(C)(C)C[C@@H]23)n1 [Example 769, (1S,2S)-2-(pyridin-3-yl)-N-((4bR,8aR)-4b,7,7-trimethyl-9-(6-((methylamino)methyl)pyridin-2-yl)-4b,5,7,8,8a,9-hexahydropyrano[3′,4′:4,5]pyrrolo[2,3-d]pyrimidin-2-yl)cyclopropane-1-carboxamide]
< 10	CC[C@@]1(O)CCc2ccc(N3c4nc(Nc5ccc(N6CCN(C)CC6)cc5)ncc4[C@@]4(C)COC(C)(C)C[C@@H]34)nc21 [Example 787, (R)-7-ethyl-2-((4bR,8aR)-4b,7,7-trimethyl-2-((4-(4-methylpiperazin-1-yl)phenyl)amino)-4b,7,8,8a-tetrahydropyrano[3′,4′:4,5]pyrrolo[2,3-d]pyrimidin-9(5H)-yl)-6,7-dihydro-5H-cyclopenta[b]pyridin-7-ol]
< 10	CC[C@]1(O)CCc2ccc(N3c4nc(Nc5ccc(N6CCN(C)CC6)cc5)ncc4[C@@]4(C)COC(C)(C)C[C@@H]34)nc21 [Example 788, (S)-7-ethyl-2-((4bR,8aR)-4b,7,7-trimethyl-2-((4-(4-methylpiperazin-1-yl)phenyl)amino)-4b,7,8,8a-tetrahydropyrano[3′,4′:4,5]pyrrolo[2,3-d]pyrimidin-9(5H)-yl)-6,7-dihydro-5H-cyclopenta[b]pyridin-7-ol]
